The values that follow come from patent US12558368B2, “Compositions and devices for systemic delivery of uridine” (PHARMA CINQ, LLC, priority 2018, dated 2026).

Data set [1] relates to mortality caused by 3-nitropropionic acid (inhibitor of Complex II of the mitochondrial respiratory chain). Briefly: Protection against mortality caused by 3-nitropropionic acid (Example 2; uridine, Na(DL-BHB), Na(D-BHB)). It counts as in vivo, Female CD-1 mice. To be noted: 3-NP 60 mg/kg/day i.p., s.c. uridine 200 mg/kg t.i.d. and/or Na(DL-BHB) or Na(D-BHB) 328 mg/kg t.i.d.; for Median Survival: 12 day study; for % Survival: end of 12 day study, 10 mice per group. How it is done:
Mitochondrial dysfunction was produced by daily administration of 3-nitropropionic acid (60 mg/kg/day) by intraperitoneal injection. Groups of mice also received saline (control), uridine, DL-BHB, D-BHB, and combinations of uridine and D-BHB and DL-BHB as indicated below. Both D- and DL-BHB were administered as the water soluble sodium salts: Na(D-BHB) (Toronto Research Chemicals, catalog #H833025) and Na(DL-BHB) (VWR International, catalog #200012-200).
• 1. Vehicle Control—0.9% saline b.i.d. • 2. Uridine 200 mg/kg t.i.d. • 3. Na (DL-BHB) 328 mg/kg t.i.d. • 4. Na (D-BHB) 328 mg/kg t.i.d. • 5. Uridine 200 mg/kg+Na (DL-BHB) 328 mg/kg t.i.d. • 6. Uridine 200 mg/kg+Na (D-BHB) 328 mg/kg t.i.d.
Survival times (median survival; the time point at which 50% of animals in a group had died) and percent survival at the end of the 12 day study were used to quantify and compare protective effects of the test agents.
Female CD-1 mice at approximately 16 weeks of age were divided into weight-matched groups of 10 mice each. All mice received daily intraperitoneal injections of 3-NP (60 mg/kg) in a volume of 0.01 ml per gram of body weight at 5 PM.
The therapeutic treatments were administered by subcutaneous injection in a volume of 0.01 ml/gram of body weight three times per day, at 7 AM and 12 PM and 4 PM. 3-NP was administered at 5 PM on each of the consecutive days of the experiment. Body weights were recorded each day to adjust drug doses as mice lost weight during repeated treatment with 3-NP. Body weight was graphed for the various groups of mice until the group size decreased below 3.

A short description of data set [2]: Pharmacokinetics of plasma uridine and D-BHB after subcutaneous administration. Format: in vivo, Female CD-1 mice. To be noted: mice. How it is done: Groups of 8 mice (Female CD-1 mice, approximately 16 weeks old) were treated with subcutaneous uridine or uridine plus Na(D-BHB) as indicated in the table below. D-BHB was administered as the water soluble sodium salt Na(D-BHB) (Toronto Research Chemicals, catalog #H833025
• 1. Group 1 (200 mg/kg Uridine+Na(D-BHB) received 10 mg/ml uridine and 49.26 mg/ml Na(D-BHB) (0.02 ml/g bw). • 2. Group 2 (300 mg/kg Uridine+Na(D-BHB) received 15 mg/ml uridine and 49.26 mg/ml Na(D-BHB) (0.02 ml/g bw). • 3. Group 3 (400 mg/kg Uridine+Na(D-BHB) received 20 mg/ml uridine and 49.26 mg/ml Na(D-BHB) (0.02 ml/g bw). • 4. Group 4 (400 mg/kg Uridine) received 20 mg/ml uridine (0.02 ml/g bw).
Blood samples were obtained from the retro-orbital plexus at time points of 15, 30, 60 and 120 minutes after drug injection. Two blood samples (<200 microliters) were collected from each mouse into heparinized polyethylene tubes, with 4 mice bled at 15 and 60 minutes, and the other 4 mice in a group were bled at 30 and 120 minutes. Plasma samples were obtained by centrifugation, and were deproteinized and analyzed for uridine and uracil by an LC/MS method. Plasma D-BHB was measured in the same samples by a commercial enzymatic color-change assay.
Rodents degrade uridine to uracil more rapidly and extensively than do humans, who have lower activities of the enzyme uridine phosphorylase. Therefore, it is important to take into account plasma uracil concentrations in rodents for optimum translation of rodent pharmacokinetic results to the human situation. The sum of uridine+uracil in rodents is a better reflection of plasma uridine equivalents than is uridine alone for translation to other animal models or to human dosing.

Data set [3] deals with mortality caused by 3-nitropropionic acid (inhibitor of Complex II of the mitochondrial respiratory chain). The data set is described as follows: Protection against mortality caused by 3-nitropropionic acid at 65 or 70 mg/kg/day (Example 3; uridine, Na(D-BHB)). It counts as in vivo, Female CD-1 mice. To be noted: s.c. uridine 200 mg/kg t.i.d. and/or Na(D-BHB) 985 mg/kg t.i.d.; for % Survival: end of study, 10 mice per group. The text has this:
Subcutaneous administration of therapeutic agents is a suitable route of administration for emergency drugs that are intended to be used in people with traumatic brain injury, stroke or asphyxia, where the patient may not be capable of ingesting oral medications or may be in a situation where it is difficult to place an intravenous catheter. Subcutaneous drug administration is practical, but the composition must conform to volumes and osmolality values that are known to be compatible with this route of administration; excessively high osmolality can cause local edema, and volumes must be low enough for injection without problematic back pressure. Compositions comprising uridine, sodium beta-hydroxybutyrate and a combination of the two, with the osmolality restricted to a maximum of 800 milliosmoles/liter (a value known to be acceptable for subcutaneous fluid administration) were tested in a model of whole-body energy failure induced by daily intraperitoneal injections of 3-nitropropionic acid at two dose levels, 65 mg/kg/day and 70 mg/kg/day.
Survival times (median survival; the time point at which 50% of animals in a group had died) and percent survival at the end of a 13 day study were used to quantify and compare protective effects of the test agents.
Female CD-1 mice at approximately 16 weeks of age were divided into weight-matched groups of 10 mice each. All mice received daily intraperitoneal injections of 3-NP (65 mg/kg or 70 mg/kg) in a volume of 0.01 ml per gram of body weight at 5 PM.
The therapeutic treatments were administered by subcutaneous injection in a volume of 0.02 ml/gram of body weight three times per day, at 7 AM and 12 PM and 4 PM. 3-NP was administered at 5 PM on each of the consecutive days of the experiment. Body weights were recorded each day to adjust drug doses as mice lost weight during repeated treatment with 3-NP. D-BHB was administered as the water soluble sodium salt Na(D-BHB) (Toronto Research Chemicals, catalog #H833025.
1. Vehicle Control—0.9% saline t.i.d.
2. Uridine 200 mg/kg t.i.d.
3. Na(D-BHB) 985 mg/kg t.i.d.
4. Uridine 200 mg/kg+Na(D-BHB) 985 mg/kg t.i.d.

The test system is the same in data set [4]. The data set is described as follows: Protection against mortality caused by 3-nitropropionic acid (Example 1; uridine and MgBHB). It counts as in vivo, Female CD-1 mice. To be noted: 3-NP 60 mg/kg/day i.p., s.c. uridine 300 mg/kg b.i.d. and/or MgBHB 300 mg/kg b.i.d.; for Median Survival: 13 day study; for % Survival: end of 13 day study, 10 mice per group. The text has this:
3-nitropropionic acid (3-NP) is an inhibitor of Complex II of the mitochondrial respiratory chain. Administration of 3-NP to experimental animals has been used as a model for mitochondrial diseases, Huntington's disease and pathological consequences of hypoxia. Daily dosing with 3-NP causes energy failure in the brain, heart and other tissues, resulting in mortality after several days. A 3-NP dosing regimen that caused 100% mortality in mice after approximately one week was selected for further evaluation of mortality, which is indicative of neuroprotective and cardioprotective effects, of compositions of the invention in a model of disorders caused by mitochondrial dysfunction. Survival times (median survival; the time point at which 50% of animals in a group had died) and percent survival at the end of the 13 day study were used to quantify protective effects of the test agents.
Female CD-1 mice at approximately 16 weeks of age were divided into weight-matched groups of 10 mice each. All mice received daily intraperitoneal injections of 3-NP (60 mg/kg) in a volume of 0.01 ml per gram of body weight. 3-NP was administered at 2 PM on each of the 13 consecutive days of the experiment. Body weights were recorded each day to adjust drug doses as mice lost weight during repeated treatment with 3-NP.
The comparative efficacy of uridine (VWR International) and the magnesium salt of racemic beta-hydroxybutyrate (magnesium β-hydroxybutyrate trihydrate; MgBHB·3H2O) (Nutra Planet) were assessed, as was the efficacy of a combination of uridine and MgBHB. All of the therapeutic treatments were administered by subcutaneous injection in a volume of 0.02 ml/gram of body weight twice per day, at 7 AM and 1 PM.
• 1. Vehicle Control—0.9% saline b.i.d. • 2. Uridine 300 mg/kg b.i.d. • 3. MgBHB 300 mg/kg b.i.d.

The conditions of data set [5]: humans, cited from earlier work.
The mark [6] stands for this setting: s.c. Na(D-BHB) 985.1 mg/kg with uridine.

By Tmax is commonly meant the time at which the peak concentration occurs.

Consider `CC(O)CC(=O)[O-].[Na+]` (racemic) [Na (DL-BHB)], for which, in data set [1], the “Median Survival” value was 8 days and the “% Survival” value is listed as 20% (2/10). For the same compound, in data set [1] (listed as Na(DL-BHB)), the “Median Survival” value was determined as 7.5 days and the “% Survival” value worked out at 20%.
On to `C[C@@H](O)CC(=O)[O-].[Na+]` [Na (D-BHB)], for which the “Median Survival” value in data set [1] was 7.5 days; in data set [1] (listed as Na(D-BHB)) it was 8 days; in data set [3] (3-NP 65 mg/kg/day i.p.), 10.5 days; in data set [3] (3-NP 70 mg/kg/day i.p.) it was 6 days. Further, the “% Survival” value in data set [1] is on record as 10% (1/10); in data set [1] (listed as Na(D-BHB)), 10%; in data set [3] (3-NP 65 mg/kg/day i.p.), 40% (4/10); in data set [3] (3-NP 70 mg/kg/day i.p.), 0% (0/10). Besides, in data set [2] (setting [6]), the “Maximum D-BHB concentration in plasma” value is listed as “approximately 3 millimolar”. The “Tmax of plasma D-BHB” value in data set [2] (setting [6]) is 15 min.
In the case of `O=c1ccn([C@@H]2O[C@H](CO)[C@@H](O)[C@H]2O)c(=O)[nH]1` [Uridine, uridine], the “Median Survival” value in data set [4] amounted to 12 days; in data set [1], 12 days; in data set [3] (3-NP 65 mg/kg/day i.p.), 9 days; in data set [3] (3-NP 70 mg/kg/day i.p.), 6.5 days. Besides, the figures for the “% Survival” value in data set [4], in data set [3] (3-NP 65 mg/kg/day i.p.) and in data set [3] (3-NP 70 mg/kg/day i.p.) were 40% (4/10), 30% (3/10) and 10% (1/10), respectively. Moreover, the Tmax in data set [2] (female, CD-1, mouse, plasma, sc, s.c. uridine 200-400 mg/kg with or without Na(D-BHB) 985.1 mg/kg, read-out: Tmax of plasma uridine (and uridine+uracil)) lay within 15 to 30 min. For the same compound, the “Plasma uridine (and uridine+uracil) C max values” in data set [2] (s.c. uridine 200, 300, 400 mg/kg) is reported as “dose-dependent”. For the same compound, the “Local tolerability of infusion into peripheral veins” value in data set [5] (infusion into accessible peripheral veins) was “caused local phlebitis”. Further, in data set [5] (intravenous infusion), the “Dose-limiting toxicity during intravenous infusion” value is reported as “Hyperthermia was encountered as a dose-limiting toxicity”.
As for “magnesium β-hydroxybutyrate trihydrate [MgBHB]”, in data set [4], the “Median Survival” value worked out at 10 days and the “% Survival” value is given as 20% (2/10).
